Source: patent US20260130395A1, “Water Dispersible Botanical Compositions” (Aquila Black Limited, priority 2021, published 2026)

Test: Stability of cannabinoid compounds and Vitamin E components in Beverage 1 (AB White) by LCMSMS
Type: physicochemical
Conditions: for Stability of Plant-Derived Cannabinoid Compounds in AB White, 8° C.: AB White stored at 8° C.; for Stability of Plant-Derived Cannabinoid Compounds in AB White, 21-25° C.: AB White stored at 21-25° C.

In the case of `CCCCCc1cc2c(c(O)c1C(=O)O)[C@@H]1C=C(C)CC[C@H]1C(C)(C)O2` [D9 THCA, delta-9-tetrahydrocannabinolic acid], the “Stability of Plant-Derived Cannabinoid Compounds in AB White, 8° C.” value (“Stability … 8° C.” for short) (0 days) was 0.950 µg/mL, the “Stability … 8° C.” value (1 days) was 0.956 µg/mL and the “Stability … 8° C.” value (2 days) was 0.954 µg/mL. The “Stability … 8° C.” value (3 days) was 0.934 µg/mL, the “Stability … 8° C.” value (5 days) was 0.956 µg/mL and the “Stability … 8° C.” value (8 days) was 0.949 µg/mL. For the same compound, the “Stability … 8° C.” value (9 days) was 0.937 µg/mL, the “Stability … 8° C.” value (10 days) was 0.960 µg/mL and the “Stability … 8° C.” value (11 days) was 0.929 µg/mL. The “Stability … 8° C.” value (12 days) was 0.942 µg/mL, the “Stability … 8° C.” value (15 days) was 0.944 µg/mL and the “Stability … 8° C.” value (16 days) was 0.932 µg/mL. The “Stability … 8° C.” value (17 days) was 0.951 µg/mL, the “Stability … 8° C.” value (18 days) was 0.950 µg/mL and the “Stability … 8° C.” value (19 days) was 0.959 µg/mL. The “Stability … 8° C.” value (22 days) was 0.960 µg/mL, the “Stability … 8° C.” value (23 days) was 0.931 µg/mL and the “Stability … 8° C.” value (24 days) was 0.926 µg/mL. The “Stability … 8° C.” value (25 days) was 0.957 µg/mL, the “Stability … 8° C.” value (26 days) was 0.956 µg/mL and the “Stability … 8° C.” value (29 days) was 0.939 µg/mL. For the same compound, the “Stability … 8° C.” value (30 days) was 0.955 µg/mL, the “Stability … 8° C.” value (60 days) was 0.914 µg/mL and the “Stability … 8° C.” value (90 days) was 0.948 µg/mL. For the same compound, the “Stability … 8° C.” value (120 days) was 0.932 µg/mL, the “Stability … 8° C.” value (150 days) was 0.952 µg/mL and the “Stability … 8° C.” value (180 days) was 0.941 µg/mL. The “Stability … 8° C.” value (210 days) was 0.923 µg/mL, the “Stability … 8° C.” value (240 days) was 0.932 µg/mL and the “Stability … 8° C.” value (270 days) was 0.933 µg/mL. For the same compound, the “Stability … 8° C.” value (300 days) was 0.939 µg/mL, the “Stability … 8° C.” value (330 days) was 0.909 µg/mL and the “Stability … 8° C.” value (360 days) was 0.913 µg/mL. For the same compound, the “Stability … 8° C.” value (390 days) was 0.923 µg/mL, the “Stability … 8° C.” value (420 days) was 0.916 µg/mL and the “Stability … 8° C.” value (450 days) was 0.923 µg/mL. For the same compound, the “Stability … 8° C.” value (480 days) was 0.905 µg/mL, the “Stability … 8° C.” value (510 days) was 0.873 µg/mL and the “Stability … 8° C.” value (540 days) was 0.877 µg/mL. For the same compound, the “Stability … 8° C.” value (570 days) was 0.872 µg/mL, the “Stability of Plant-Derived Cannabinoid Compounds in AB White, 21-25° C.” value (shortened to “Stability … 21-25° C.”) (0 days) was 0.950 µg/mL and the “Stability … 21-25° C.” value (1 days) was 0.960 µg/mL. For the same compound, the “Stability … 21-25° C.” value (2 days) was 0.938 µg/mL, the “Stability … 21-25° C.” value (3 days) was 0.920 µg/mL and the “Stability … 21-25° C.” value (5 days) was 0.958 µg/mL. For the same compound, the “Stability … 21-25° C.” value (8 days) was 0.937 µg/mL, the “Stability … 21-25° C.” value (9 days) was 0.926 µg/mL and the “Stability … 21-25° C.” value (10 days) was 0.935 µg/mL. The “Stability … 21-25° C.” value (11 days) was 0.949 µg/mL, the “Stability … 21-25° C.” value (12 days) was 0.935 µg/mL and the “Stability … 21-25° C.” value (15 days) was 0.948 µg/mL. For the same compound, the “Stability … 21-25° C.” value (16 days) was 0.921 µg/mL, the “Stability … 21-25° C.” value (17 days) was 0.919 µg/mL and the “Stability … 21-25° C.” value (18 days) was 0.928 µg/mL. For the same compound, the “Stability … 21-25° C.” value (19 days) was 0.917 µg/mL, the “Stability … 21-25° C.” value (22 days) was 0.947 µg/mL and the “Stability … 21-25° C.” value (23 days) was 0.924 µg/mL. For the same compound, the “Stability … 21-25° C.” value (24 days) was 0.927 µg/mL, the “Stability … 21-25° C.” value (25 days) was 0.948 µg/mL and the “Stability … 21-25° C.” value (26 days) was 0.921 µg/mL. The “Stability … 21-25° C.” value (29 days) was 0.922 µg/mL, the “Stability … 21-25° C.” value (30 days) was 0.934 µg/mL and the “Stability … 21-25° C.” value (60 days) was 0.896 µg/mL. For the same compound, the “Stability … 21-25° C.” value (90 days) was 0.892 µg/mL, the “Stability … 21-25° C.” value (120 days) was 0.894 µg/mL and the “Stability … 21-25° C.” value (150 days) was 0.934 µg/mL. The “Stability … 21-25° C.” value (180 days) was 0.945 µg/mL, the “Stability … 21-25° C.” value (210 days) was 0.913 µg/mL and the “Stability … 21-25° C.” value (240 days) was 0.892 µg/mL. The “Stability … 21-25° C.” value (270 days) was 0.905 µg/mL, the “Stability … 21-25° C.” value (300 days) was 0.888 µg/mL and the “Stability … 21-25° C.” value (330 days) was 0.894 µg/mL. For the same compound, the “Stability … 21-25° C.” value (360 days) was 0.925 µg/mL, the “Stability … 21-25° C.” value (390 days) was 0.907 µg/mL and the “Stability … 21-25° C.” value (420 days) was 0.909 µg/mL. The “Stability … 21-25° C.” value (450 days) was 0.921 µg/mL, the “Stability … 21-25° C.” value (480 days) was 0.873 µg/mL and the “Stability … 21-25° C.” value (510 days) was 0.903 µg/mL. The “Stability … 21-25° C.” value (540 days) was 0.877 µg/mL and the “Stability … 21-25° C.” value (570 days) was 0.877 µg/mL.
